pIC50: −log10 of the molar value.

In this experiment the test system is MOLM-13 cells. Kind of experiment: MOLM-13 Cell Proliferation Assay (indicator of DHODH inhibition). The format is cell-based. The note with it: Homo sapiens, 72 Hours of culture, CellTiter-Glo, no uridine. The method, boiled down: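 Low-passage MOLM-13 cells (10^4/well) in RPMI 1640 + 10% FBS exposed to compound (0.5% DMSO final) for 72 h at 37 °C, 5% CO2. Viability read by CellTiter-Glo luminescence; growth reflects de novo pyrimidine synthesis dependent on DHODH.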
(ATP-based viability assays read luminescence as a measure of living cells.)
Usually pIC50 stands for −log10 of the IC50, conventionally taken in molar units. Low readings indicate a high IC50, high ones a low IC50. Molecule `CN(C)c1ncc(C2c3[nH]c4ccc(Cl)c(F)c4c3CCN2c2nccc(C(F)(F)F)n2)cn1` (stereo not drawn) [Compound 178, 5-{6-chloro-5-fluoro-2-[4-(trifluoromethyl)pyrimidin-2-yl]-2,3,4,9-tetrahydro-1H-pyrido[3,4-b]indol-1-yl}-N,N-dimethylpyrimidin-2-amine] showed a pIC50 of 8.47.

The molecule `Cc1ccc([C@@H]2c3[nH]c4ccc(Cl)cc4c3CCN2c2ncc(F)cn2)c(F)c1F` [Compound 179, (1R)-6-chloro-1-(2,3-difluoro-4-methylphenyl)-2-(5-fluoropyrimidin-2-yl)-2,3,4,9-tetrahydro-1H-pyrido[3,4-b]indole] showed a pIC50 of 7.63.

In turn, `Cc1ccc([C@@H]2c3[nH]c4ccc(Cl)cc4c3CCN2c2nccc(C(F)(F)F)n2)c(F)c1F` [Compound 180, (1R)-6-chloro-1-(2,3-difluoro-4-methylphenyl)-2-[4-(trifluoromethyl)pyrimidin-2-yl]-2,3,4,9-tetrahydro-1H-pyrido[3,4-b]indole] showed a pIC50 of 7.95.

Regarding `Fc1c(Cl)ccc2[nH]c3c(c12)CCN(c1nccc(C(F)(F)F)n1)[C@@H]3c1ccc(Cl)cc1` [Compound 181, (1R)-6-chloro-1-(4-chlorophenyl)-5-fluoro-2-[4-(trifluoromethyl)pyrimidin-2-yl]-2,3,4,9-tetrahydro-1H-pyrido[3,4-b]indole], the pIC50 is 6.75.

On to `Fc1c(Cl)ccc2[nH]c3c(c12)CCN(c1nccc(C(F)(F)F)n1)[C@H]3c1ccc(Cl)cc1` [Compound 182, (1S)-6-chloro-1-(4-chlorophenyl)-5-fluoro-2-[4-(trifluoromethyl)pyrimidin-2-yl]-2,3,4,9-tetrahydro-1H-pyrido[3,4-b]indole], for which the pIC50 was 8.89.

As to `N#Cc1nc(N2CCc3c([nH]c4cc(F)c(Cl)cc34)C2c2cccc(F)c2F)ncc1F` (stereo not drawn) [Compound 183, 2-[6-chloro-1-(2,3-difluorophenyl)-7-fluoro-1,3,4,9-tetrahydro-2H-pyrido[3,4-b]indol-2-yl]-5-fluoropyrimidine-4-carbonitrile], the negative-log IC50 (pIC50) was 8.35.

On to `Fc1ccc(C2c3[nH]c4cc(F)c(Cl)cc4c3CCN2c2nccc(C(F)(F)F)n2)c(F)n1` (stereo not drawn) [Compound 184, 6-chloro-1-(2,6-difluoropyridin-3-yl)-7-fluoro-2-[4-(trifluoromethyl)pyrimidin-2-yl]-2,3,4,9-tetrahydro-1H-pyrido[3,4-b]indole], for which the negative logarithm of the IC50 (pIC50) was 8.10.

For the molecule `Cc1ccnc(N2CCc3c([nH]c4ccc(Cl)cc34)[C@H]2c2ccc(C)c(F)c2F)n1` [Compound 185, (1R)-6-chloro-1-(2,3-difluoro-4-methylphenyl)-2-(4-methylpyrimidin-2-yl)-2,3,4,9-tetrahydro-1H-pyrido[3,4-b]indole], the pIC50 is 7.79.

`Fc1ccc(C2c3[nH]c4ccc(Cl)c(F)c4c3CCN2c2nccc(C(F)(F)F)n2)c(F)n1` (stereo not drawn) [Compound 186, 6-chloro-1-(2,6-difluoropyridin-3-yl)-5-fluoro-2-[4-(trifluoromethyl)pyrimidin-2-yl]-2,3,4,9-tetrahydro-1H-pyrido[3,4-b]indole] showed a negative-log IC50 (pIC50) of 8.52.

`Cc1ccc([C@@H]2c3[nH]c4ccc(Cl)cc4c3CCN2c2ncc(F)c(C)n2)c(F)c1F` [Compound 187, (1R)-6-chloro-1-(2,3-difluoro-4-methylphenyl)-2-(5-fluoro-4-methylpyrimidin-2-yl)-2,3,4,9-tetrahydro-1H-pyrido[3,4-b]indole] had a pIC50 of 7.69.

In turn, `N#Cc1ccc(C2c3[nH]c4cc(F)c(Cl)cc4c3CCN2c2nc(C(F)(F)F)cc(C(F)(F)F)n2)cc1` (stereo not drawn) [Compound 188, 4-{2-[4,6-bis(trifluoromethyl)pyrimidin-2-yl]-6-chloro-7-fluoro-2,3,4,9-tetrahydro-1H-pyrido[3,4-b]indol-1-yl}benzonitrile] gave a negative logarithm of the IC50 (pIC50) of 9.22.

As to `Cc1ccc([C@H]2c3[nH]c4ccc(Cl)c(F)c4c3CCN2c2nc(C)c(F)c(C)n2)c(F)c1F` [Compound 189, (1S)-6-chloro-1-(2,3-difluoro-4-methylphenyl)-5-fluoro-2-(5-fluoro-4,6-dimethylpyrimidin-2-yl)-2,3,4,9-tetrahydro-1H-pyrido[3,4-b]indole], the negative logarithm of the IC50 (pIC50) was 9.40.

Regarding `Cc1ccc([C@@H]2c3[nH]c4ccc(Cl)c(F)c4c3CCN2c2nc(C)c(F)c(C)n2)c(F)c1F` [Compound 190, (1R)-6-chloro-1-(2,3-difluoro-4-methylphenyl)-5-fluoro-2-(5-fluoro-4,6-dimethylpyrimidin-2-yl)-2,3,4,9-tetrahydro-1H-pyrido[3,4-b]indole], the pIC50 was 6.38.

In turn, `Fc1c(Cl)ccc2[nH]c3c(c12)CCN(c1nccc(C(F)(F)F)n1)C3c1cncnc1` (stereo not drawn) [Compound 191, 6-chloro-5-fluoro-1-(pyrimidin-5-yl)-2-[4-(trifluoromethyl)pyrimidin-2-yl]-2,3,4,9-tetrahydro-1H-pyrido[3,4-b]indole] showed a pIC50 of 7.68.

Regarding `Cc1ccc(C2c3[nH]c4ccc(C)c(F)c4c3CCN2c2nccc(C(F)(F)F)n2)c(F)c1F` (stereo not drawn) [Compound 192, 1-(2,3-difluoro-4-methylphenyl)-5-fluoro-6-methyl-2-[4-(trifluoromethyl)pyrimidin-2-yl]-2,3,4,9-tetrahydro-1H-pyrido[3,4-b]indole], the pIC50 was 8.70.

In turn, `Fc1c(Cl)ccc2[nH]c3c(c12)CCN(c1nccc(C(F)(F)F)n1)C3c1cnc(-n2ccnc2)nc1` (stereo not drawn) [Compound 193, 6-chloro-5-fluoro-1-[2-(1H-imidazol-1-yl)pyrimidin-5-yl]-2-[4-(trifluoromethyl)pyrimidin-2-yl]-2,3,4,9-tetrahydro-1H-pyrido[3,4-b]indole] showed a pIC50 of 8.42.

In the case of `CN(C)c1ccc(C2c3[nH]c4ccc(Cl)c(F)c4c3CCN2c2ncc(F)cn2)cn1` (stereo not drawn) [Compound 194, 5-[6-chloro-5-fluoro-2-(5-fluoropyrimidin-2-yl)-2,3,4,9-tetrahydro-1H-pyrido[3,4-b]indol-1-yl]-N,N-dimethylpyridin-2-amine], the negative-log IC50 (pIC50) is 7.94.

With `Cc1ccc(C2c3[nH]c4ccc(Cl)c(F)c4c3CCN2c2ncc(Cl)cn2)c(F)c1F` (stereo not drawn) [Compound 195, 6-chloro-2-(5-chloropyrimidin-2-yl)-1-(2,3-difluoro-4-methylphenyl)-5-fluoro-2,3,4,9-tetrahydro-1H-pyrido[3,4-b]indole], the pIC50 is 9.00.

`Cc1ccnc(N2CCc3c([nH]c4ccc(Cl)c(F)c34)C2c2ccc(C)c(F)c2F)n1` (stereo not drawn) [Compound 196, 6-chloro-1-(2,3-difluoro-4-methylphenyl)-5-fluoro-2-(4-methylpyrimidin-2-yl)-2,3,4,9-tetrahydro-1H-pyrido[3,4-b]indole]: the negative logarithm of the IC50 (pIC50) was 8.74.

Regarding `Cc1ccc(C2c3[nH]c4ccc(Cl)c(F)c4c3CCN2c2nccc(C#N)n2)c(F)c1F` (stereo not drawn) [Compound 198, 2-[6-chloro-1-(2,3-difluoro-4-methylphenyl)-5-fluoro-1,3,4,9-tetrahydro-2H-pyrido[3,4-b]indol-2-yl]pyrimidine-4-carbonitrile], the pIC50 is 8.92.

In turn, `CNc1ncc(C2c3[nH]c4ccc(Cl)c(F)c4c3CCN2c2nccc(C(F)(F)F)n2)cn1` (stereo not drawn) [Compound 199, 5-{6-chloro-5-fluoro-2-[4-(trifluoromethyl)pyrimidin-2-yl]-2,3,4,9-tetrahydro-1H-pyrido[3,4-b]indol-1-yl}-N-methylpyrimidin-2-amine] had a negative-log IC50 (pIC50) of 8.27.

The values are drawn from US20250186437A1, “CARBOLINE COMPOUNDS AND USE THEREOF” (PTC Therapeutics, Inc., priority 2021, published 2025).
